The record followed here is ChEMBL document CHEMBL5500429, “ERAP Inhibitors in Autoimmunity and Immuno-Oncology: Medicinal Chemistry Insights” (J Med Chem, 2024).

A value given as a limit tells only on which side of the number the result lay.

In test [1] the target is T1, Endoplasmic reticulum aminopeptidase 2 (Homo sapiens, UniProt Q6P179). The test is described as follows: Inhibition of ERAP2 (unknown origin) using R-AMC as substrate.
For test [2], the target named is T2, Endoplasmic reticulum aminopeptidase 1 (Homo sapiens, UniProt Q9NZ08). The test is described as follows: Inhibition of C-terminal Hexa-histidine-tagged human recombinant ERAP1 expressed in Sf9 cells using L-AMC as substrate incubated for 15 mins by Michaelis-Menten analysis.
Test [3] addresses T1, Endoplasmic reticulum aminopeptidase 2. The test is described as follows: Inhibition of C-terminal Hexa-histidine-tagged human recombinant ERAP2 expressed in Sf9 cells using R-AMC as substrate incubated for 15 mins by Michaelis-Menten analysis.
For a further test, the target named is Aminopeptidase N (Homo sapiens, UniProt P15144). The test is described as follows: Inhibition of FLAG-tagged human recombinant Aminopeptidase N.
Test [4] concerns the target T2, Endoplasmic reticulum aminopeptidase 1. The experiment in a line: Inhibition of ERAP1 (unknown origin) using L-AMC as substrate.
The nature of test [5]: Inhibition of C-terminal Hexa-histidine-tagged human recombinant IRAP expressed in Sf9 cells using R-AMC as substrate incubated for 15 mins by Michaelis-Menten analysis.
In another test the target is Cytosol aminopeptidase (Homo sapiens, UniProt P28838). The experiment in a line: Inhibition of human recombinant Leucine aminopeptidase 3.
Test [6] deals with T3, Leukotriene A-4 hydrolase (Homo sapiens, UniProt P09960).
T3 sequence (P09960 whole entry): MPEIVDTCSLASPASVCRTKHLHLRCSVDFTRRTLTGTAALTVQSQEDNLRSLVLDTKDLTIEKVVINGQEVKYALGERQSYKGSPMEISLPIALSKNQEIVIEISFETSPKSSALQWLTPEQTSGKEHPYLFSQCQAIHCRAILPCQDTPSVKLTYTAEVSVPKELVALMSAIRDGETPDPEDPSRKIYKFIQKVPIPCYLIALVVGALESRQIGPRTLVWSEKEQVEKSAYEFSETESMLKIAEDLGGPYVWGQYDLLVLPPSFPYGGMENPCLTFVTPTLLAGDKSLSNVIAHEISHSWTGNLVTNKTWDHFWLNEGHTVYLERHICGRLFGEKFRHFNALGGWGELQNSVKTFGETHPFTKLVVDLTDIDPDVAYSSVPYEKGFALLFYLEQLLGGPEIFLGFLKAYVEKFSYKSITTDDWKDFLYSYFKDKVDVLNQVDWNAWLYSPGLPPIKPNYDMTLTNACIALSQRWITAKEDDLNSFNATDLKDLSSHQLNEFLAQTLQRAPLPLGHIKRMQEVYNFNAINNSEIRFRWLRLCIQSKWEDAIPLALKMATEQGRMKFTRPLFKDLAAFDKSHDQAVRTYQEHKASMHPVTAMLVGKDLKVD
The test is described as follows: Inhibition of full length human recombinant Leukotriene A-4 hydrolase expressed in baculovirus infected Insect cells. Set-up: species or system Insect cell.

T2 sequence (Q9NZ08 whole entry): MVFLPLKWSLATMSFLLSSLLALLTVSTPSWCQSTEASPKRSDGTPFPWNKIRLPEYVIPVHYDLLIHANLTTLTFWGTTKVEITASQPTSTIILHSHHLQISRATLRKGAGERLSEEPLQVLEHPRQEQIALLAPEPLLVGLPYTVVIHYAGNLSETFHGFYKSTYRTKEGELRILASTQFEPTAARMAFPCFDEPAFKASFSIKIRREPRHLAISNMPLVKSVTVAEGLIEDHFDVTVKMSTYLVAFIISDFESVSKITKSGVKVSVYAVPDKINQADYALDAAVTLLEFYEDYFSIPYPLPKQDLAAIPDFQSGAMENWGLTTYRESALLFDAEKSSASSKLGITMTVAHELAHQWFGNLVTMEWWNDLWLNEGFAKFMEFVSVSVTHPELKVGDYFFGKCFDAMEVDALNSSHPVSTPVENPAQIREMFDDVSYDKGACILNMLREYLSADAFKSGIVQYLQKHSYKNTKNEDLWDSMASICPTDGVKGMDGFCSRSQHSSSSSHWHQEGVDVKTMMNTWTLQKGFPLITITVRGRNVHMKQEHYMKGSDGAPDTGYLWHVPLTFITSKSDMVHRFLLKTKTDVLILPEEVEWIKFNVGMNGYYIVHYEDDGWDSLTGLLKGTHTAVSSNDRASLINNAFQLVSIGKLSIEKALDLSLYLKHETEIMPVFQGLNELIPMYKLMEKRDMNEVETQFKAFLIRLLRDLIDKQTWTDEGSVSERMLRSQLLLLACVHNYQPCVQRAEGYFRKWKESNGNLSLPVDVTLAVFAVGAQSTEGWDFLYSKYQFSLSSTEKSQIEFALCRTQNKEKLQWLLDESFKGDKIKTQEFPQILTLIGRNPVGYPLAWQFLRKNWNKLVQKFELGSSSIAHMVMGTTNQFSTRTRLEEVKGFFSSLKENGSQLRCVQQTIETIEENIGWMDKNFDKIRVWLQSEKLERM
T1 sequence (Q6P179 whole entry): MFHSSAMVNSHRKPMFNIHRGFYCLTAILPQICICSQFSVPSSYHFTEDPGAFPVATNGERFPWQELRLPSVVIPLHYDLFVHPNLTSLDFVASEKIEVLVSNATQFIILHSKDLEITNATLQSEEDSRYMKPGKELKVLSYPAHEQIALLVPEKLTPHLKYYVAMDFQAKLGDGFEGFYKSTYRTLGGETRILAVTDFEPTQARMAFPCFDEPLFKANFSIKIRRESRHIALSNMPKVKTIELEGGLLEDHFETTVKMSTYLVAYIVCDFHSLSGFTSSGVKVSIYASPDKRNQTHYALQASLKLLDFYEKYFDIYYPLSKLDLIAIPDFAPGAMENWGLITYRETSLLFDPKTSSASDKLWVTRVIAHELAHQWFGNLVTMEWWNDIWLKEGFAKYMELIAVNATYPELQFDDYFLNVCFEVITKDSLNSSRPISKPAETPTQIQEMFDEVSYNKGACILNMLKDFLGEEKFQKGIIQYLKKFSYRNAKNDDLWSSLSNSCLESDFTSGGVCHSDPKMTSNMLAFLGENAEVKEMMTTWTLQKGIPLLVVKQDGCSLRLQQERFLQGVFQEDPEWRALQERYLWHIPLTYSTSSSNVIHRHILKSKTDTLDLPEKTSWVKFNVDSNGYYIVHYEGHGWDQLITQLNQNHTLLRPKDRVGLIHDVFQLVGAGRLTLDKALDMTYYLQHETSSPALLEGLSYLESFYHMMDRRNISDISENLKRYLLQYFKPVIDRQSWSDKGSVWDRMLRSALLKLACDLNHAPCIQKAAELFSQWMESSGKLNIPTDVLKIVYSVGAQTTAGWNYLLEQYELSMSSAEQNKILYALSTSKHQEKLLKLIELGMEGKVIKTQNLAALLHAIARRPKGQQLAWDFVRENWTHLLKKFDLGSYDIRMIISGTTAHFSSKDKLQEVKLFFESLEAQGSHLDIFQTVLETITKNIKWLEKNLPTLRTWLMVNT
Sequence of Aminopeptidase N (P15144 whole entry): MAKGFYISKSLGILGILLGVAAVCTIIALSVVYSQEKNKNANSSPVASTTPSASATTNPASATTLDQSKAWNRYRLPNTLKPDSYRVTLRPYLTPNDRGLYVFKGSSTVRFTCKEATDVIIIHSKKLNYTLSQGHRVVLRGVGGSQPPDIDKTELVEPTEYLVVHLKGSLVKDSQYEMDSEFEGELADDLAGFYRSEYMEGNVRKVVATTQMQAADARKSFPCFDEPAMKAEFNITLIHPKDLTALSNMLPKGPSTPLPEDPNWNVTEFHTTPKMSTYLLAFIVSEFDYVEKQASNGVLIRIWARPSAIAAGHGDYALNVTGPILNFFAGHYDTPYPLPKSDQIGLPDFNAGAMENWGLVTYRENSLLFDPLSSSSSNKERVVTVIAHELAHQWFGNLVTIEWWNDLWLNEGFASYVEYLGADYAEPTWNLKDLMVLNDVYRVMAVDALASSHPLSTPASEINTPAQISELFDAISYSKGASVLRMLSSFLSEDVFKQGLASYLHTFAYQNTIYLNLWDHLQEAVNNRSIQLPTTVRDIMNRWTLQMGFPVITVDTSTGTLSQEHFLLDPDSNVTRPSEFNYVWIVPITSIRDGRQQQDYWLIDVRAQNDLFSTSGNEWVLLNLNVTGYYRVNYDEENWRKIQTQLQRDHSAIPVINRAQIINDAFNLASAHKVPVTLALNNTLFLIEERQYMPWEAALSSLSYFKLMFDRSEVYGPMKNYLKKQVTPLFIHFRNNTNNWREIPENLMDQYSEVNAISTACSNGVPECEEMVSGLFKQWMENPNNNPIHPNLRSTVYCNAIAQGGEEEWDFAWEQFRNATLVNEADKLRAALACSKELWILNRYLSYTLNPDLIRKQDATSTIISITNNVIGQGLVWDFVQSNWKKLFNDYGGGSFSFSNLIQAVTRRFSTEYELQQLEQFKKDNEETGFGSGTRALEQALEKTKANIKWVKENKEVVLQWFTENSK
Sequence of Cytosol aminopeptidase (P28838 whole entry): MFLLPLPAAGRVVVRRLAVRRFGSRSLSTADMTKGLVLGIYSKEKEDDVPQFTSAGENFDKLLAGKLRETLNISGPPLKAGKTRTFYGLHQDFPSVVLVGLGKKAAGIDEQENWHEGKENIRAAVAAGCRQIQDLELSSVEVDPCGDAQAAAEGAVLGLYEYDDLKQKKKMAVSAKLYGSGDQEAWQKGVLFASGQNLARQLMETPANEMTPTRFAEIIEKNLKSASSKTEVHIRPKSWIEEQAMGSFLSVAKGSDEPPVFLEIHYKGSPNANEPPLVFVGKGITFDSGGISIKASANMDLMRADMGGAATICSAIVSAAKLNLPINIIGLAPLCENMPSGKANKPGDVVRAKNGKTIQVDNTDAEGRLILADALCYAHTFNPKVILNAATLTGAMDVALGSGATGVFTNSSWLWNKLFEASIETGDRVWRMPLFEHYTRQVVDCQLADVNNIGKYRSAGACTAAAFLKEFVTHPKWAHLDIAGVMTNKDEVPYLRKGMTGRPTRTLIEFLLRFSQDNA

A word on the IC50: it is the concentration needed to halve the response being measured. In test [1], `COc1ccc(C(=O)O)cc1S(=O)(=O)Nc1ccc(C(F)(F)F)cc1N1CCCCC1` had an IC50 of 26.8 µM.
On to `CC(C)C[C@H](N)CS`, for which the IC50 in test [2] was determined as 0.11 µM; in test [3] it was 0.61 µM; at Aminopeptidase N it was 0.008 µM.
With `COc1ccc(C[C@@H](C(=O)NO)n2cc(CNS(=O)(=O)c3ccc(-c4ccccc4)s3)nn2)cc1`, in test [4], the IC50 is > 100 µM.
As to `O=C(NO)[C@H](Cc1ccc(Oc2ccccc2)cc1)n1cc(CNS(=O)(=O)c2ccc(-c3ccccn3)s2)nn1`, the half-maximal inhibitory concentration (IC50) in test [4] is > 100 µM.
As for `O=C(C[C@H](Cc1ccc(O)cc1)n1nncc1CNS(=O)(=O)c1ccc(-c2ccccn2)s1)NO`, in test [4], the IC50 is > 100 µM.
Consider `CC(C)C[C@@H](N)[C@H](O)C(=O)N[C@H](C(=O)N[C@H](C(=O)N[C@@H](CC(=O)O)C(=O)O)C(C)C)C(C)C` [AMASTATIN], for which the IC50 in test [5] came to 25 µM; in test [2], 22 µM.
Turning to `CC(C)C[C@@H](C(=O)N[C@H](C(=O)OC1CCCC1)c1ccccc1)[C@H](O)C(=O)NO` [TOSEDOSTAT], the IC50 on Cytosol aminopeptidase stood at 0.005 µM; in test [2], 18 µM; in test [6], 0.008 µM; in test [3], 0.77 µM; at Aminopeptidase N, 0.03 µM.
For the molecule `CC(C)C[C@H](NC(=O)[C@@H](O)[C@H](N)Cc1ccccc1)C(=O)O` [UBENIMEX], the IC50 in test [5] was > 100 µM; in test [2] it was 11 µM.
